From patent US20090264452A1 (priority 2004, published 2009)
pEC50: −log10 of the molar value. Counter-ions that a name gives are not always drawn.

Target: T1, human cannabinoid CB2 receptor (Homo sapiens, UniProt P34972)
T1 construct: expressed in transfected cells; host or cells: Saccharomyces cerevisiae strain MMY23 (integration at the ura3 locus, GPD promoter)
Experiment: Cannabinoid CB2 receptor agonist activity, yeast reporter assay
Format: cell-based
Details: for Emax: relative to HU210, yeast cells expressing human CB2, read-out: efficacy value (Emax) at the cloned human cannabinoid CB2 receptor; for pEC50: yeast (Saccharomyces cerevisiae) cells expressing human CB2, agonist, read-out: EC50 at the cloned human cannabinoid CB2 receptor
Procedure: The cannabinoid CB2 receptor agonist activity of the compounds of formula (I) was determined in accordance with the following experimental method.
Yeast (Saccharomyces cerevisiae) cells expressing the human cannabinoid CB2 receptor were generated by integration of an expression cassette into the ura3 chromosomal locus of yeast strain MMY23. This cassette consisted of DNA sequence encoding the human CB2 receptor flanked by the yeast GPD promoter to the 5′ end of CB2 and a yeast transcriptional terminator sequence to the 3′ end of CB2. MMY23 expresses a yeast/mammalian chimeric G-protein alpha subunit in which the C-terminal 5 amino acids of Gpa1 are replaced with the C-terminal 5 amino acids of human Gαi3 (as described in Brown et al. (2000), Yeast 16:11-22). Cells were grown at 30° C. in liquid Synthetic Complete (SC) yeast media (Guthrie and Fink (1991), Methods in Enzymology, Vol. 194) lacking uracil, tryptophan, adenine and leucine to late logarithmic phase (approximately 6 OD600/ml).
Agonists were prepared as 10 mM stocks in DMSO. EC50 values (the concentration required to produce 50% maximal response) were estimated using dilutions of between 3- and 5-fold (BiomekFX, Beckman) into DMSO. Agonist solutions in DMSO (1% final assay volume) were transferred into black, clear bottom, microtitre plates from NUNC (96- or 384-well). Cells were suspended at a density of 0.2 OD600/ml in SC media lacking histidine, uracil, tryptophan, adenine and leucine and supplemented with 10 mM 3-aminotriazole, 0.1M sodium phosphate pH 7.0, and […] fluorescein di-β-D-glucopyranoside (FDGlu). This mixture (50 ul per well for 384-well plates, 200 ul per well for 96-well plates) was added to agonist in the assay plates (Multidrop 384, Labsystems). After incubation at 30° C. for 24 hours, fluorescence resulting from degradation of FDGlu to fluorescein due to exoglucanase, an endogenous yeast enzyme produced during agonist-stimulated cell growth, was determined using a Spectrofluor microtitre plate reader (Tecan; excitation wavelength: 485 nm; emission wavelength: 535 nm). Fluorescence was plotted against compound concentration an iteratively curve fitted using a four parameter fit to generate a concentration effect value. Efficacy (Emax) was calculated from the equation
Emax=Max[compound X]−Min[compound X]/Max[HU210]−Min[HU210]×100%
where Max[compound X] and Min[compound X] are the fitted maximum and minimum respectively from the concentration effect curve for compound X, and Max[HU210] and Min[HU210] are the fitted maximum and minimum respectively from the concentration effect curve for (6aR,10aR)-3-(1,1′-Dimethylheptyl)-6a,7,10,10a-tetrahydro-1-hydroxy-6,6-dimethyl-6H-dibenzo[b,d]pyran-9-methanol (HU210; available from Tocris). Equieffective molar ratio (EMR) values were calculated from the equation
Where EC50 [compound X] is the EC50 of compound X and EC50 [HU210] is the EC50 of HU210.

T1 sequence (P34972 whole entry): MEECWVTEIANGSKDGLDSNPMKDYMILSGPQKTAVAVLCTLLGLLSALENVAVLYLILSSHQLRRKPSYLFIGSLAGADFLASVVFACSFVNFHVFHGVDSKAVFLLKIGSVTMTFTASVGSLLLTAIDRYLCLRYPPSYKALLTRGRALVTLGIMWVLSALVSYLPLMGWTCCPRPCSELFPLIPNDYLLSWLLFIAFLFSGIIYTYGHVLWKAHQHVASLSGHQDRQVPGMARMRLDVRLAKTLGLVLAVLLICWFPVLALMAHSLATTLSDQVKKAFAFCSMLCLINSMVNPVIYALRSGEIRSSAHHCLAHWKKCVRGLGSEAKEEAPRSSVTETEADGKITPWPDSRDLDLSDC

Row | Compound | Emax [%] | pEC50
1 | CC(c1nc(Nc2cccc(Cl)c2)ncc1C(=O)NCC1CCOCC1)N(C)C (stereo not shown) [Example 5, 2-[(3-chlorophenyl)amino]-4-[1-(dimethylamino)ethyl]-N-(tetrahydro-2H-pyran-4-ylmethyl)-5-pyrimidinecarboxamide hydrochloride] | < 50 | < 6.00
2 | CCc1nc(Nc2cccc(Cl)c2)ncc1C(=O)NCC1CCCCC1 [Example 3] | > 50 | > 6.52
3 | CC(C)c1nc(Nc2cccc(Cl)c2)ncc1C(=O)NCC1CCOCC1 [Example 2, 2-(3-Chlorophenylamino)-4-isopropylpyrimidin-5-carboxylic acid (tetrahydro-pyran-4-ylmethyl)-amide] | > 50 | > 6.52
4 | CC(C)c1nc(Nc2cccc(Cl)c2)ncc1C(=O)NCC1CCCCC1 [Example 1] | > 50 | > 6.52
5 | CCc1nc(Nc2cccc(Cl)c2)ncc1C(=O)NCC1CCOCC1 [Example 4, 2-(3-Chlorophenylamino)-4-ethylpyrimidin-5-carboxylic acid (tetrahydro-pyran-4-ylmethyl)-amide] | > 50 | 6.00 to 6.52
